Patent US4110327A, “2,3 Diketo-piperazinocarbonylamino alkanoic acids and derivatives” (Toyama Chemical Co., Ltd., priority 1974, dated 1978)
Converted amounts (≈) assume the structure as drawn.

Legend:
Proteus mirabilis = test: MIC against clinical isolates; type: cell-based; settings: clinical isolate, unit assumed
Proteus vulgaris = test: MIC against clinical isolates; type: cell-based; settings: clinical isolate, unit assumed
Shigella flexneri = test: MIC against clinical isolates; type: cell-based; settings: unit assumed
Protocol: (§1) The minimum inhibitory concentrations (MIC) was determined by the plate method disclosed in "Chemotherapy" (Japan), Vol. 16, (1968), pages 98 - 99. The culture medium used was a Heart infusion agar (pH 7.4). The number of the cells per plate used in the inoculum as 10^4 (10^6 cells/ml).
(§2) MIC was determined in the same manner as in the preceding paragraph (1).

Shigella sonnei = test: MIC against clinical isolates; type: cell-based; settings: unit assumed
Protocol: as §1, §2

Salmonella typhi-murium = test: MIC against clinical isolates; type: cell-based; settings: unit assumed
Klebsiella pneumoniae [1] = test: MIC against clinical isolates; type: cell-based; settings: unit assumed
Proteus morganii = test: MIC against clinical isolates; type: cell-based; settings: clinical isolate, unit assumed
Staphylococcus aureus = test: MIC against clinical isolates; type: cell-based; settings: unit assumed
Escherichia coli = test: MIC against clinical isolates; type: cell-based; settings: unit assumed
Salmonella typhi = test: MIC against clinical isolates; type: cell-based; settings: unit assumed
Proteus vulgaris 3027 = test: MIC against standard strain, plate method; type: cell-based; settings: Proteus vulgaris 3027, standard strain; unit assumed
Summary of the method: (§3)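 Heart infusion agar (pH 7.4) plates; inoculum 10^4 cells/plate (10^6 cells/ml suspension); MIC read by plate method.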

[2] = tested on: Pseudomonas aeruginosa I.F.O.; test: MIC against standard strain, plate method; type: cell-based; settings: unit assumed
Summary of the method: as §3

Escherichia coli NIHJ = test: MIC against standard strain, plate method; type: cell-based; settings: unit assumed
Summary of the method: as §3

[3] = tested on: Staphylococcus aureus 209p; test: MIC against standard strain, plate method; type: cell-based; settings: unit assumed
Summary of the method: as §3

Pseudomonas aeruginosa = test: MIC against clinical isolates; type: cell-based; settings: unit assumed
Proteus rettgeri = test: MIC against clinical isolates; type: cell-based; settings: clinical isolate, unit assumed
Klebsiella pneumoniae [4] = test: MIC against standard strain, plate method; type: cell-based; settings: unit assumed
Summary of the method: as §3

β-lactamase = test: Resistant activity against β-lactamase, iodometric assay; type: biochemical, Pseudomonas aeruginosa GN 238; settings: relative to Potassium Penicillin G = 100
Protocol: (3) Resistant activity against β-lactamase, Pseudomonas aergionan GN 238:
The resistant activity of each compound against β-lactamase was measured in the manner described below.
β-Lactamase was prepared from Pseudomonas aeruginosa GN 238. This microorganism was cultured in 100 ml of a medium containing 2 g of yeast extract, 10 g of polypeptone, 2 g of glucose, 7 g of disodium hydrogen phosphate, 2 g of potassium dihydrogen phosphate, 1.2 g of ammonium sulfate and 0.4 g of magnesium sulfate, per liter, in a 500-ml Erlenmeyer flask for 6 hrs. at 37° C with shaking. The resulting cells were collected by centrifugation (5,000 r.p.m. × 10 min.), washed three times with 0.1 M phosphate buffer (pH 7.0). Subsequently, the cells were subjected to sonication (20 KHz, 20 min.) and then centrifuged at 15,000 r.p.m. for 60 min. By using the supernatant of enzyme fluid, the resistance of each compound against β-lactamase was determined by the iodometric assay method. Each numeral shown in Table 7 is a relative activity value calculated by assuming as 100 the activity of the control Potassium Penicillin G.

[5] = clinical isolate GN (number not given; Table 5-3)

CCCCCCCCN1CCN(C(=O)N[C@@H](C(=O)N[C@@H]2C(=O)N3[C@@H]2SC(C)(C)[C@@H]3C(=O)O)c2ccccc2)C(=O)C1 [compound 16]
MIC (Proteus mirabilis): 1.56 µg/mL (≈ 2.65 µM)
MIC (Proteus vulgaris): 0.8 µg/mL (≈ 1.36 µM)
MIC (Shigella flexneri; clinical isolate JS 11215): 6.25 µg/mL (≈ 10.6 µM)
MIC (Shigella flexneri; clinical isolate JS 11839): 0.79 µg/mL (≈ 1.34 µM)
MIC (Shigella sonnei; clinical isolate JS 11232): 6.25 µg/mL (≈ 10.6 µM)
MIC (Salmonella typhi-murium; clinical isolate SL 858): 1.57 µg/mL (≈ 2.67 µM)
MIC (Salmonella typhi-murium; clinical isolate SL 2136): 100 µg/mL (≈ 170 µM)
MIC (Klebsiella pneumoniae [1]; clinical isolate GN 917): 12.5 µg/mL (≈ 21.3 µM)
MIC (Klebsiella pneumoniae [1]; clinical isolate GN 4081): 25 µg/mL (≈ 42.5 µM)
MIC (Klebsiella pneumoniae [1]; clinical isolate GN 4117): 25 µg/mL (≈ 42.5 µM)
MIC (Proteus morganii): 1.56 µg/mL (≈ 2.65 µM)
MIC (Staphylococcus aureus; clinical isolate F-1): 6.25 µg/mL (≈ 10.6 µM)
MIC (Staphylococcus aureus; clinical isolate F-2): 0.79 µg/mL (≈ 1.34 µM)
MIC (Staphylococcus aureus; clinical isolate F-4): 6.25 µg/mL (≈ 10.6 µM)
MIC (Staphylococcus aureus; clinical isolate F-5): 100 µg/mL (≈ 170 µM)
MIC (Staphylococcus aureus; clinical isolate MS 8619): < 0.4 µg/mL
MIC (Escherichia coli; clinical isolate GN 3465): 12.5 µg/mL (≈ 21.3 µM)
MIC (Escherichia coli; clinical isolate K-3): 50 µg/mL (≈ 85.1 µM)
MIC (Salmonella typhi; clinical isolate SL 819): 3.13 µg/mL (≈ 5.33 µM)
MIC (Salmonella typhi; clinical isolate SL 2169): 1.57 µg/mL (≈ 2.67 µM)
MIC (Proteus vulgaris 3027): < 1.57 µg/mL
MIC [2]: 12.5 µg/mL (≈ 21.3 µM)
MIC (Escherichia coli NIHJ): < 1.57 µg/mL
MIC [3]: < 1.57 µg/mL
MIC (Pseudomonas aeruginosa; clinical isolate GN 82): 6.25 µg/mL (≈ 10.6 µM)
MIC (Pseudomonas aeruginosa; clinical isolate GN 163): 12.5 µg/mL (≈ 21.3 µM)
MIC (Pseudomonas aeruginosa; clinical isolate GN 221): 25 µg/mL (≈ 42.5 µM)
MIC (Pseudomonas aeruginosa; clinical isolate GN 376): 25 µg/mL (≈ 42.5 µM)
MIC (Pseudomonas aeruginosa; clinical isolate GN 383): 25 µg/mL (≈ 42.5 µM)
MIC (Pseudomonas aeruginosa; clinical isolate GN 1035): 25 µg/mL (≈ 42.5 µM)
MIC (Pseudomonas aeruginosa; clinical isolate GN 1091): 12.5 µg/mL (≈ 21.3 µM)
MIC (Pseudomonas aeruginosa; clinical isolate GN 2565): 12.5 µg/mL (≈ 21.3 µM)
MIC (Pseudomonas aeruginosa; [5]): 12.5 µg/mL (≈ 21.3 µM)
MIC (Pseudomonas aeruginosa; clinical isolate S-1): 12.5 µg/mL (≈ 21.3 µM)
MIC (Pseudomonas aeruginosa; clinical isolate S-2): 25 µg/mL (≈ 42.5 µM)
MIC (Pseudomonas aeruginosa; clinical isolate S-3): 50 µg/mL (≈ 85.1 µM)
MIC (Pseudomonas aeruginosa; clinical isolate S-4): 25 µg/mL (≈ 42.5 µM)
MIC (Proteus rettgeri): 6.25 µg/mL (≈ 10.6 µM)

CC1(C)S[C@@H]2[C@H](NC(=O)[C@H](N)c3ccccc3)C(=O)N2[C@H]1C(=O)O [Sodium Ampicillin, SodiumAmpicillin, reference compound]
MIC (Proteus mirabilis): < 1.57 µg/mL
MIC (Proteus vulgaris): < 1.5 µg/mL
MIC (Shigella flexneri; clinical isolate JS 11839): 1.57 µg/mL
MIC (Shigella sonnei; clinical isolate JS 11232): > 200 µg/mL
MIC (Shigella sonnei; clinical isolate JS 11755): 6.25 µg/mL
MIC (Salmonella typhi-murium; clinical isolate SL 858): 3.13 µg/mL
MIC (Salmonella typhi-murium; clinical isolate SL 2136): > 200 µg/mL
MIC (Klebsiella pneumoniae [1]; clinical isolate GN 917): 25 µg/mL
MIC (Klebsiella pneumoniae [1]; clinical isolate GN 3850): 50 µg/mL
MIC (Klebsiella pneumoniae [1]; clinical isolate GN 4081): > 200 µg/mL
MIC (Klebsiella pneumoniae [1]; clinical isolate GN 4117): > 200 µg/mL
MIC (Proteus morganii): < 1.57 µg/mL
MIC (Staphylococcus aureus; clinical isolate F-2): 0.79 µg/mL
MIC (Staphylococcus aureus; clinical isolate F-5): 50 µg/mL
MIC (Staphylococcus aureus; clinical isolate MS 8588): 6.25 µg/mL
MIC (Staphylococcus aureus; clinical isolate MS 8619): < 0.4 µg/mL
MIC (Escherichia coli; clinical isolate GN 3452): 6.25 µg/mL
MIC (Escherichia coli; clinical isolate GN 3481): 6.25 µg/mL
MIC (Escherichia coli; clinical isolate GN 3611): > 200 µg/mL
MIC (Escherichia coli; clinical isolate K-1): 6.25 µg/mL
MIC (Escherichia coli; clinical isolate K-2): 6.25 µg/mL
MIC (Escherichia coli; clinical isolate K-3): > 200 µg/mL
MIC (Salmonella typhi; clinical isolate SL 819): 1.56 µg/mL
MIC (Salmonella typhi; clinical isolate SL 2169): 0.78 µg/mL
MIC (Proteus vulgaris 3027): > 200 µg/mL
MIC [2]: > 200 µg/mL
MIC (Escherichia coli NIHJ): < 1.57 µg/mL
MIC (Klebsiella pneumoniae [4]): 50 µg/mL
MIC [3]: < 1.57 µg/mL
MIC (Pseudomonas aeruginosa; clinical isolate GN 82): > 200 µg/mL
MIC (Pseudomonas aeruginosa; clinical isolate GN 163): > 200 µg/mL
MIC (Pseudomonas aeruginosa; clinical isolate GN 221): > 200 µg/mL
MIC (Pseudomonas aeruginosa; clinical isolate GN 376): > 200 µg/mL
MIC (Pseudomonas aeruginosa; clinical isolate GN 383): > 200 µg/mL
MIC (Pseudomonas aeruginosa; clinical isolate GN 1035): > 200 µg/mL
MIC (Pseudomonas aeruginosa; clinical isolate GN 1091): > 200 µg/mL
MIC (Pseudomonas aeruginosa; clinical isolate GN 2565): > 200 µg/mL
MIC (Pseudomonas aeruginosa; clinical isolate GN 2987): > 200 µg/mL
MIC (Pseudomonas aeruginosa; [5]): > 200 µg/mL
MIC (Pseudomonas aeruginosa; clinical isolate S-1): > 200 µg/mL
MIC (Pseudomonas aeruginosa; clinical isolate S-2): > 200 µg/mL
MIC (Pseudomonas aeruginosa; clinical isolate S-3): > 200 µg/mL
MIC (Pseudomonas aeruginosa; clinical isolate S-4): > 200 µg/mL
MIC (Proteus rettgeri): 200 µg/mL

CC1(C)S[C@@H]2[C@H](NC(=O)C(c3ccccc3)S(=O)(=O)O)C(=O)N2[C@H]1C(=O)O (some centres unmarked) [Sodium Sulbenicillin, SodiumSulbenicillin, reference compound]
MIC (Proteus mirabilis): 0.79 µg/mL
MIC (Proteus vulgaris): < 0.4 µg/mL
Relative activity (β-lactamase): 50%
MIC (Klebsiella pneumoniae [1]; clinical isolate GN 917): > 200 µg/mL
MIC (Klebsiella pneumoniae [1]; clinical isolate GN 3850): > 200 µg/mL
MIC (Klebsiella pneumoniae [1]; clinical isolate GN 4081): > 200 µg/mL
MIC (Klebsiella pneumoniae [1]; clinical isolate GN 4117): > 200 µg/mL
MIC (Proteus morganii): < 0.4 µg/mL
MIC (Staphylococcus aureus; clinical isolate F-2): 3.13 µg/mL
MIC (Staphylococcus aureus; clinical isolate F-5): > 200 µg/mL
MIC (Staphylococcus aureus; clinical isolate MS 8588): 3.13 µg/mL
MIC (Staphylococcus aureus; clinical isolate MS 8596): 3.13 µg/mL
MIC (Staphylococcus aureus; clinical isolate MS 8619): 3.13 µg/mL
MIC (Staphylococcus aureus; clinical isolate MS 8684): 3.13 µg/mL
MIC (Staphylococcus aureus; clinical isolate MS 8713): 3.13 µg/mL
MIC (Escherichia coli; clinical isolate GN 3452): 12.5 µg/mL
MIC (Escherichia coli; clinical isolate GN 3465): > 200 µg/mL
MIC (Escherichia coli; clinical isolate GN 3481): 12.5 µg/mL
MIC (Escherichia coli; clinical isolate GN 3611): > 200 µg/mL
MIC (Escherichia coli; clinical isolate K-2): 12.5 µg/mL
MIC (Escherichia coli; clinical isolate K-3): > 200 µg/mL
MIC (Proteus vulgaris 3027): 0.79 µg/mL
MIC [2]: 50 µg/mL
MIC (Klebsiella pneumoniae [4]): > 200 µg/mL
MIC [3]: 3.13 µg/mL
MIC (Pseudomonas aeruginosa; clinical isolate GN 82): 50 µg/mL
MIC (Pseudomonas aeruginosa; clinical isolate GN 163): 50 µg/mL
MIC (Pseudomonas aeruginosa; clinical isolate GN 221): 25 µg/mL
MIC (Pseudomonas aeruginosa; clinical isolate GN 376): 50 µg/mL
MIC (Pseudomonas aeruginosa; clinical isolate GN 383): 50 µg/mL
MIC (Pseudomonas aeruginosa; clinical isolate GN 1035): 100 µg/mL
MIC (Pseudomonas aeruginosa; clinical isolate GN 1091): 50 µg/mL
MIC (Pseudomonas aeruginosa; clinical isolate GN 2565): 100 µg/mL
MIC (Pseudomonas aeruginosa; clinical isolate GN 2987): 25 µg/mL
MIC (Pseudomonas aeruginosa; [5]): 50 µg/mL
MIC (Pseudomonas aeruginosa; clinical isolate S-1): 100 µg/mL
MIC (Pseudomonas aeruginosa; clinical isolate S-2): 100 µg/mL
MIC (Pseudomonas aeruginosa; clinical isolate S-3): 100 µg/mL
MIC (Pseudomonas aeruginosa; clinical isolate S-4): 100 µg/mL
MIC (Proteus rettgeri): > 200 µg/mL
